The structures appear in SMILES notation.

The target of one series is T1, A2A adenosine receptor (Homo sapiens, UniProt P29274).
T1 construct: purchased PerkinElmer Research Products (Boston, Mass.); host or cells: HEK-293 cells, stably transfected; membrane preparation
Put plainly: Radioligand binding test ([3H]CGS21680 displacement, hA2A HEK-293 cell membrane). The note with it: calculated from IC50 by Cheng and Prusoff equation; [3H]CGS21680 25 nM, Km 22 nM; 25° C., 90 minutes. How it is done:
[3H]CGS21680 (2-[p-(2-carboxyethyl)phenylethylamino]-5′-N-ethylformamidoadenosine, [carboxy-1-ethyl-3H(N)]; 250 μCi) was purchased from PerkinElmer Research Products (Boston, Mass.).
Cell membrane stably transfected with (human) A2A adenosine receptor was prepared in HEK-293 cells. The cell membrane was obtained from PerkinElmer Research Products (Boston, Mass.).
CGS21680 (2-[p-(2-carboxyethyl)phenylethylamino]-5′-N-ethylformamidoadenosine) was purchased from Selleck (Shanghai, CN).
The A2A adenosine receptors used were all expressed in the cell membrane. […] The specific binding percentage of [3H]CGS21680 was calculated according to the CPM value, % specific binding of [3H]CGS21680=(CPMsample−CPMLow Control)/(CPMHigh Control−CPMLow Control)*100, in which
High Control was 0.5% DMSO, Low Control was 100 μM CGS21680. The IC50 value was calculated based on the compound concentration and the specific binding percentage of [3H]CGS21680 by curve fitting.
The inhibition constant (Ki) value was calculated from the IC50 value according to the Cheng and Prusoff equation, Ki=IC50/(1+[S]/Km), in which [S] was the concentration of the radioligand (25 nM), and Km was the human A2AAR dissociation constant (22 nM) of [3H]CGS21680. The inhibition constant Ki values for Compounds 1 to 20 of the present invention binding to A2A adenosine receptor were shown in Table 1.

T1 sequence (P29274 whole entry): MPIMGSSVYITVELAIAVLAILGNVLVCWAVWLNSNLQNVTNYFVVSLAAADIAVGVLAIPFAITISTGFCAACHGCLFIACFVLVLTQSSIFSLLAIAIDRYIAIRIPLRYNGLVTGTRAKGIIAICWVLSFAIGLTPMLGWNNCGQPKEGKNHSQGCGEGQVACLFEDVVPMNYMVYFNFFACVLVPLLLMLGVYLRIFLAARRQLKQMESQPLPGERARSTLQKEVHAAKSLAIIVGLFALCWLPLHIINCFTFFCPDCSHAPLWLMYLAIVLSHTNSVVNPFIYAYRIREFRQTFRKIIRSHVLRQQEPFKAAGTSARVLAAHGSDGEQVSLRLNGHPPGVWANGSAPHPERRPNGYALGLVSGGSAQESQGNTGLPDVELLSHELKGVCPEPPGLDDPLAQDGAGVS

In turn, `OC[C@H]1O[C@@H](n2cnc3c(N/N=C/c4ccc[nH]4)ncnc32)[C@H](O)[C@@H]1O` [Compound 1, (2R,3R,4S,5R)-2-{6-{2-[(E)-(1H-pyrrol-2-yl)methylene]hydrazino}-9H-purin-9-yl}-5-(hydroxymethyl)tetrahydrofuran-3,4-diol] showed a melting point of 160 °C. For the same molecule, the Ki at A2A adenosine receptor is 945 nM.
In the case of `CSCC/C=N/Nc1ncnc2c1ncn2[C@@H]1O[C@H](CO)C(O)C1O` (stereo partly drawn) [Compound 2, (2R,3S,4R,5R)-2-(hydroxymethyl)-5-{6-{2-[(E)-3-(methylthio)propylene]hydrazino}-9H-purin-9-yl}tetrahydrofuran-3,4-diol], the melting point was found to be 94 °C. Besides, the Ki on A2A adenosine receptor was 2150 nM.
In the same order, the values of `CC(=O)Nc1ccc(/C=N/Nc2ncnc3c2ncn3[C@@H]2O[C@H](CO)C(O)C2O)cc1` (stereo partly drawn) [Compound 3, N-{4-{(E)-{2-{9-[(2R,3R,4S,5R)-3,4-dihydroxy-5-(hydroxymethyl)tetrahydrofuran-2-yl]-9H-purin-6-yl}hydrazino}methyl}phenyl}acetamide] are 170 °C and 3.6 nM.
In the same order, the values of `OC[C@H]1O[C@@H](n2cnc3c(N/N=C/c4ccc(OCc5ccccc5)c(OCc5ccccc5)c4)ncnc32)C(O)C1O` (stereo partly drawn) [Compound 4] are 186 °C and greater than 10000 nM.
In the same order, the values of `OC[C@H]1O[C@@H](n2cnc3c(N/N=C/c4ccc(C(F)(F)F)cc4C(F)(F)F)ncnc32)[C@H](O)[C@@H]1O` [Compound 6, (2R,3R,4S,5R)-2-{6-{2-[(E)-2,4-bis(trifluoromethyl)benzylidene]hydrazino}-9H-purin-9-yl}-5-(hydroxymethyl)tetrahydrofuran-3,4-diol] are 200 °C and 1.2 nM.
On to `OC[C@H]1O[C@@H](n2cnc3c(N/N=C/c4cccc(OCc5ccccc5)c4)ncnc32)[C@H](O)[C@@H]1O` [Compound 8, (2R,3R,4S,5R)-2-{6-{2-[(E)-3-(benzyloxy)benzylidene]hydrazino}-9H-purin-9-yl}-5-(hydroxymethyl)tetrahydrofuran-3,4-diol], for which the melting point came out at 140 °C. For the same molecule, the Ki at A2A adenosine receptor is 236 nM.
In the same order, the values of `OC[C@H]1O[C@@H](n2cnc3c(N/N=C/c4ccc(-c5ccccn5)cc4)ncnc32)[C@H](O)[C@@H]1O` [Compound 9, (2R,3S,4R,5R)-2-(hydroxymethyl)-5-{6-{2-[(E)-4-(pyridin-2-yl)benzylidene]hydrazino}-9H-purin-9-yl}tetrahydrofuran-3,4-diol] are 236 °C and 4590 nM.
`OC[C@H]1O[C@@H](n2cnc3c(N/N=C/c4ccc(-c5ccccc5)cc4)ncnc32)C(O)C1O` (stereo partly drawn) [Compound 10] showed a melting point of 170 °C. Moreover, on A2A adenosine receptor, the Ki was 1900 nM.
In turn, `OC[C@H]1O[C@@H](n2cnc3c(N/N=C/c4ccc(N5CCCC5)cc4)ncnc32)[C@H](O)[C@@H]1O` [Compound 11, (2R,3S,4R,5R)-2-(hydroxymethyl)-5-{6-{2-[(E)-4-(pyrrolidin-1-yl)benzylidene]hydrazino}-9H-purin-9-yl}tetrahydrofuran-3,4-diol] registered a melting point of 202 °C. Further, the Ki on A2A adenosine receptor is 2 nM.
On the same counts, the results for `OC[C@H]1O[C@@H](n2cnc3c(N/N=C/c4ccc(-n5ccnc5)cc4)ncnc32)[C@H](O)[C@@H]1O` [Compound 12, (2R,3R,4S,5R)-2-{6-{2-[(E)-4-(1H-imidazol-1-yl)benzylidene]hydrazino}-9H-purin-9-yl}-5(hydroxymethyl)tetrahydrofuran-3,4-diol] are 222 °C and 15.4 nM.
In the same order, the values of `CCCOc1ccc(/C=N/Nc2ncnc3c2ncn3[C@@H]2O[C@H](CO)[C@@H](O)[C@H]2O)cc1` [Compound 13, (2R,3S,4R,5R)-2-(hydroxymethyl)-5-{6-{2-[(E)-4-propoxybenzylidene]hydrazino}-9H-purin-9-yl}tetrahydrofuran-3,4-diol] are 202 °C and 4470 nM.
On the same counts, the results for `OC[C@H]1O[C@@H](n2cnc3c(N/N=C/c4ccc(C(F)(F)F)cc4)ncnc32)[C@H](O)[C@@H]1O` [Compound 14, (2R,3S,4R,5R)-2-(hydroxymethyl)-5-{6-{2-[(E)-4-(trifluoromethyl)benzylidene]hydrazino}-9H-purin-9-yl}tetrahydrofuran-3,4-diol] are 182 °C and 520 nM.
The molecule `CN(C)c1ccc(/C=C/C=N/Nc2ncnc3c2ncn3[C@@H]2O[C@H](CO)[C@@H](O)[C@H]2O)cc1` [Compound 17, (2R,3R,4S,5R)-2-{6-{2-{(1E,2E)-3-[4-(dimethylamino)phenyl]allylidene}hydrazino}-9H-purin-9-yl}-5-(hydroxymethyl)tetrahydrofuran-3,4-diol] returned a melting point of 172 °C. Also, the Ki at A2A adenosine receptor was 1.4 nM.
On the same counts, the results for `OC[C@H]1O[C@@H](n2cnc3c(N/N=C/c4ccc(Cl)c(C(F)(F)F)c4)ncnc32)C(O)C1O` (stereo partly drawn) [Compound 18] are 196 °C and 1470 nM.
On to `OC[C@H]1O[C@@H](n2cnc3c(N/N=C/c4ccc(N(c5ccccc5)c5ccccc5)cc4)ncnc32)C(O)C1O` (stereo partly drawn) [Compound 19], for which the melting point was 160 °C. The Ki on A2A adenosine receptor was 5580 nM.
`CCCCc1nc(/C=N/Nc2ncnc3c2ncn3[C@@H]2O[C@H](CO)[C@@H](O)[C@H]2O)c(Cl)[nH]1` [Compound 20, (2R,3R,4S,5R)-2-{6-{2-[(E)-(2-butyl-5-chloro-1H-imidazol-4-yl)methylene]hydrazino}-9H-purin-9-yl}-5-(hydroxymethyl)tetrahydrofuran-3,4-diol] came in with a melting point of 178 °C. Moreover, at A2A adenosine receptor, the Ki was 998 nM.
In the same order, the values of `CCCCC/C=C/C=C/C=N/Nc1ncnc2c1ncn2[C@@H]1O[C@H](CO)[C@@H](O)[C@H]1O` [Compound 21, (2R,3R,4S,5R)-2-{6-{2-[(1E,2E,4E)-deca-2,4-dien-1-ylidene]hydrazino}-9H-purin-9-yl}-5(hydroxymethyl)tetrahydrofuran-3,4-diol] are 178 °C and 1.2 nM.
Regarding `OC[C@H]1O[C@@H](n2cnc3c(N/N=C/C4CCCCC4)ncnc32)[C@H](O)[C@@H]1O` [Compound 22, (2R,3R,4S,5R)-2-{6-{2-[(E)-cyclohexylmethylene]hydrazino}-9H-purin-9-yl}-5-(hydroxylmethyl)tetrahydrofuran-3,4diol], the melting point was determined as 132 °C. Besides, the Ki on A2A adenosine receptor is 86.6 nM.

These data come from patent publication US20220380402A1, “6-HYDRAZINOADENOSINE COMPOUNDS WITH A2A ADENOSINE RECEPTOR AGONIST ACTIVITY” (ACADEMY OF MILITARY MEDICAL SCIENCES, priority 2019, published 2022).
